Laboratory results taken from ChEMBL document CHEMBL4610054, “Design, synthesis, and structure-activity relationship studies of novel triazole agents with strong antifungal activity against Aspergillus fumigatus” (2020).
In brackets after ≈: the same amount, converted by molar mass.

What was measured:
Type in all cases: functional
Aspergillus fumigatus = assay: Antifungal activity against Aspergillus fumigatus 7544 by NCCLS protocol based broth microdilution assay
Cryptococcus neoformans = assay: Antifungal activity against Cryptococcus neoformans 32605 by NCCLS protocol based broth microdilution assay
Candida albicans [1] = assay: Antifungal activity against Candida albicans SC5314 by NCCLS protocol based broth microdilution assay
Candida albicans [2] = assay: Antifungal activity against Candida albicans Y0109 by NCCLS protocol based broth microdilution assay
Nannizzia gypsea = assay: Antifungal activity against Microsporum gypseum CMCC by NCCLS protocol based broth microdilution assay
Nakaseomyces glabratus = assay: Antifungal activity against Candida glabrata 537 by NCCLS protocol based broth microdilution assay
Candida parapsilosis = assay: Antifungal activity against Candida parapsilosis 22019 by NCCLS protocol based broth microdilution assay; conditions: Lodderomyces parapsilosis
Candida albicans [3] = assay: Antifungal activity against fluconazole-resistant Candida albicans isolate 103 by NCCLS protocol based broth microdilution method
Candida albicans [4] = assay: Antifungal activity against fluconazole-resistant Candida albicans isolate 100 by NCCLS protocol based broth microdilution method

Row | SMILES | MIC (Aspergillus fumigatus) [µg/mL] | MIC (Cryptococcus neoformans) [µg/mL] | MIC (Candida albicans [1]) [µg/mL] | MIC (Candida albicans [2]) [µg/mL] | MIC (Nannizzia gypsea) [µg/mL] | MIC (Nakaseomyces glabratus) [µg/mL] | MIC (Candida parapsilosis) [µg/mL] | MIC (Candida albicans [3]) [µg/mL] | MIC (Candida albicans [4]) [µg/mL]
1 | C[C@@H](n1nnc2cccc(Cl)c2c1=O)[C@](O)(Cn1cncn1)c1ccc(F)cc1F | 32 (≈ 73.9 µM) | 0.0625 (≈ 0.144 µM) | 0.25 (≈ 0.578 µM) | – | – | – | – | – | –
2 | C[C@@H](n1nnc2ccc(F)cc2c1=O)[C@](O)(Cn1cncn1)c1ccc(F)cc1F | 16 (≈ 38.4 µM) | 0.25 (≈ 0.6 µM) | 0.0625 (≈ 0.15 µM) | – | – | – | – | – | –
3 | Cc1ccc2nnn([C@H](C)[C@](O)(Cn3cncn3)c3ccc(F)cc3F)c(=O)c2c1 | 16 (≈ 38.8 µM) | 0.25 (≈ 0.606 µM) | 0.0625 (≈ 0.152 µM) | – | – | – | – | – | –
4 | C[C@@H](n1nnc2c(ccc3ccccc32)c1=O)[C@](O)(Cn1cncn1)c1ccc(F)cc1F | > 64 | 0.5 (≈ 1.11 µM) | 0.125 (≈ 0.279 µM) | – | – | – | – | – | –
5 | C[C@@H](n1nnc2ccc(C(F)(F)F)cc2c1=O)[C@](O)(Cn1cncn1)c1ccc(F)cc1F | > 64 | 2 (≈ 4.29 µM) | 0.25 (≈ 0.536 µM) | – | – | – | – | – | –
6 | Cc1ccc2c(=O)n([C@H](C)[C@](O)(Cn3cncn3)c3ccc(F)cc3F)nnc2c1 | 2 (≈ 4.85 µM) | 0.125 (≈ 0.303 µM) | 0.0156 (≈ 0.0378 µM) | 0.0156 (≈ 0.0378 µM) | 2 (≈ 4.85 µM) | 0.0156 (≈ 0.0378 µM) | 0.0313 (≈ 0.0759 µM) | – | –
7 | C[C@@H](n1nnc2c(Br)cccc2c1=O)[C@](O)(Cn1cncn1)c1ccc(F)cc1F | > 64 | 0.25 (≈ 0.524 µM) | 0.5 (≈ 1.05 µM) | – | – | – | – | – | –
8 | C[C@@H](n1nnc2cc(Cl)ccc2c1=O)[C@](O)(Cn1cncn1)c1ccc(F)cc1F | 0.25 (≈ 0.578 µM) | 0.0313 (≈ 0.0723 µM) | 0.0156 (≈ 0.036 µM) | 0.0156 (≈ 0.036 µM) | 0.25 (≈ 0.578 µM) | 0.0156 (≈ 0.036 µM) | 0.0156 (≈ 0.036 µM) | 2 (≈ 4.62 µM) | 8 (≈ 18.5 µM)
9 | C[C@@H](c1ncncc1F)[C@](O)(Cn1cncn1)c1ccc(F)cc1F [VORICONAZOLE] | 0.25 (≈ 0.716 µM) | 0.0625 (≈ 0.179 µM) | 0.0313 (≈ 0.0896 µM) | 0.0156 (≈ 0.0447 µM) | 0.25 (≈ 0.716 µM) | 0.0156 (≈ 0.0447 µM) | 0.0156 (≈ 0.0447 µM) | > 64 | > 64
10 | C[C@@H](n1cnc2cc(Cl)ccc2c1=O)[C@](O)(Cn1cncn1)c1ccc(F)cc1F [ALBACONAZOLE] | 0.25 (≈ 0.579 µM) | 0.0313 (≈ 0.0725 µM) | 0.0313 (≈ 0.0725 µM) | 0.0156 (≈ 0.0361 µM) | 1 (≈ 2.32 µM) | 0.0625 (≈ 0.145 µM) | 0.0156 (≈ 0.0361 µM) | 4 (≈ 9.26 µM) | 8 (≈ 18.5 µM)
11 | OC(Cn1cncn1)(Cn1cncn1)c1ccc(F)cc1F [FLUCONAZOLE] | > 64 | 0.5 (≈ 1.63 µM) | 0.5 (≈ 1.63 µM) | 0.5 (≈ 1.63 µM) | 32 (≈ 104 µM) | 2 (≈ 6.53 µM) | 1 (≈ 3.27 µM) | > 64 | > 64
12 | C[C@@H](n1nnc2c(Cl)cccc2c1=O)[C@](O)(Cn1cncn1)c1ccc(F)cc1F | > 64 | 0.25 (≈ 0.578 µM) | 0.25 (≈ 0.578 µM) | – | – | – | – | – | –
13 | C[C@@H](n1nnc2cc(I)ccc2c1=O)[C@](O)(Cn1cncn1)c1ccc(F)cc1F | 1 (≈ 1.91 µM) | 0.125 (≈ 0.238 µM) | 0.0156 (≈ 0.0298 µM) | 0.0156 (≈ 0.0298 µM) | 1 (≈ 1.91 µM) | 0.0313 (≈ 0.0597 µM) | 0.0625 (≈ 0.119 µM) | > 64 | > 64
14 | C[C@@H](n1nnc2cc(F)ccc2c1=O)[C@](O)(Cn1cncn1)c1ccc(F)cc1F | 1 (≈ 2.4 µM) | 0.25 (≈ 0.6 µM) | 0.0156 (≈ 0.0375 µM) | 0.0156 (≈ 0.0375 µM) | 2 (≈ 4.8 µM) | 0.0313 (≈ 0.0752 µM) | 0.0313 (≈ 0.0752 µM) | 64 (≈ 154 µM) | 32 (≈ 76.9 µM)
15 | C[C@@H](n1nnc2cc(Cl)c(F)cc2c1=O)[C@](O)(Cn1cncn1)c1ccc(F)cc1F | 8 (≈ 17.7 µM) | 0.25 (≈ 0.555 µM) | 0.125 (≈ 0.277 µM) | – | – | – | – | – | –
16 | C[C@@H](n1nnc2ccccc2c1=O)[C@](O)(Cn1cncn1)c1ccc(F)cc1F | 4 (≈ 10 µM) | 0.25 (≈ 0.628 µM) | 0.0313 (≈ 0.0786 µM) | 0.0156 (≈ 0.0392 µM) | 2 (≈ 5.02 µM) | 0.0625 (≈ 0.157 µM) | 0.0313 (≈ 0.0786 µM) | – | –
17 | C[C@@H](n1nnc2ccc(Cl)cc2c1=O)[C@](O)(Cn1cncn1)c1ccc(F)cc1F | > 64 | 0.5 (≈ 1.16 µM) | 0.0313 (≈ 0.0723 µM) | – | – | – | – | – | –
18 | C[C@@H](n1nnc2ccc([N+](=O)[O-])cc2c1=O)[C@](O)(Cn1cncn1)c1ccc(F)cc1F | > 64 | 2 (≈ 4.51 µM) | 0.5 (≈ 1.13 µM) | – | – | – | – | – | –
19 | COc1ccc2c(=O)n([C@H](C)[C@](O)(Cn3cncn3)c3ccc(F)cc3F)nnc2c1 | 2 (≈ 4.67 µM) | 0.125 (≈ 0.292 µM) | 0.0156 (≈ 0.0364 µM) | 0.0156 (≈ 0.0364 µM) | 2 (≈ 4.67 µM) | 0.0156 (≈ 0.0364 µM) | 0.0313 (≈ 0.0731 µM) | – | –
20 | C[C@@H](n1nnc2ccc(I)cc2c1=O)[C@](O)(Cn1cncn1)c1ccc(F)cc1F | 32 (≈ 61 µM) | 0.5 (≈ 0.954 µM) | 0.125 (≈ 0.238 µM) | – | – | – | – | – | –
21 | C[C@@H](n1nnc2ccc(Br)cc2c1=O)[C@](O)(Cn1cncn1)c1ccc(F)cc1F | > 64 | 2 (≈ 4.19 µM) | 0.125 (≈ 0.262 µM) | – | – | – | – | – | –
22 | C[C@@H](n1nnc2cc(F)c(F)cc2c1=O)[C@](O)(Cn1cncn1)c1ccc(F)cc1F | 2 (≈ 4.6 µM) | 0.5 (≈ 1.15 µM) | 0.0313 (≈ 0.0721 µM) | 0.0156 (≈ 0.0359 µM) | 1 (≈ 2.3 µM) | 0.0625 (≈ 0.144 µM) | 0.0313 (≈ 0.0721 µM) | – | –
23 | COc1ccc2nnn([C@H](C)[C@](O)(Cn3cncn3)c3ccc(F)cc3F)c(=O)c2c1 | 32 (≈ 74.7 µM) | 1 (≈ 2.33 µM) | 0.0625 (≈ 0.146 µM) | – | – | – | – | – | –
24 | C[C@@H](n1nnc2cc(Br)ccc2c1=O)[C@](O)(Cn1cncn1)c1ccc(F)cc1F | 0.5 (≈ 1.05 µM) | 0.0625 (≈ 0.131 µM) | 0.0156 (≈ 0.0327 µM) | 0.0156 (≈ 0.0327 µM) | 0.5 (≈ 1.05 µM) | 0.0156 (≈ 0.0327 µM) | 0.0313 (≈ 0.0656 µM) | 32 (≈ 67 µM) | 16 (≈ 33.5 µM)
25 | C[C@@H](n1nnc2cc(C(F)(F)F)ccc2c1=O)[C@](O)(Cn1cncn1)c1ccc(F)cc1F | 4 (≈ 8.58 µM) | 0.125 (≈ 0.268 µM) | 0.0156 (≈ 0.0334 µM) | 0.0156 (≈ 0.0334 µM) | 2 (≈ 4.29 µM) | 0.0313 (≈ 0.0671 µM) | 0.0313 (≈ 0.0671 µM) | – | –
26 | C[C@@H](n1nnc2cccc(F)c2c1=O)[C@](O)(Cn1cncn1)c1ccc(F)cc1F | > 64 | 0.0625 (≈ 0.15 µM) | 0.5 (≈ 1.2 µM) | – | – | – | – | – | –
27 | C[C@@H](n1nnc2c(F)cccc2c1=O)[C@](O)(Cn1cncn1)c1ccc(F)cc1F | > 64 | 0.0313 (≈ 0.0752 µM) | 0.5 (≈ 1.2 µM) | – | – | – | – | – | –
28 | C[C@@H](n1nnc2cccc(Br)c2c1=O)[C@](O)(Cn1cncn1)c1ccc(F)cc1F | 32 (≈ 67 µM) | 0.0625 (≈ 0.131 µM) | 0.25 (≈ 0.524 µM) | – | – | – | – | – | –
29 | C[C@@H](n1nnc2cc([N+](=O)[O-])ccc2c1=O)[C@](O)(Cn1cncn1)c1ccc(F)cc1F | 4 (≈ 9.02 µM) | 0.25 (≈ 0.564 µM) | 0.0156 (≈ 0.0352 µM) | 0.0156 (≈ 0.0352 µM) | 4 (≈ 9.02 µM) | 0.0313 (≈ 0.0706 µM) | 0.0313 (≈ 0.0706 µM) | – | –
